Measured values as given in patent US20210386753A1, “METHODS OF ADMINISTERING INTRAVENOUS MELOXICAM PRE-OPERATIVELY AND IN COMBINATION WITH OTHER DRUGS” (BAUDAX BIO, INC., priority 2018, published 2021).
Read-outs that look alike come from different tables or passages of the source.

Tests used:
[1] = following oral administration, cited from earlier work
[2] = tested on: patients; test: Onset, peak and duration of analgesic effect; assay type: in vivo, human; conditions: meloxicam administration as disclosed herein (IV)
[3] = Plasma Tmax of meloxicam; assay type: in vivo; conditions: human, 30 mg, methods as disclosed herein (IV bolus)
[4] = tested on: patients; conditions: intravenous; Prescribing Information; cited from earlier work

SMILES | time of maximum observed plasma concentration (tmax) [1] | time of maximum observed plasma concentration (tmax) ([1]; listed as oral meloxicam) | therapeutic window [2] | Tmax [3] | time for the onset of pain relief [4]
Cc1cnc(NC(=O)C2=C(O)c3ccccc3S(=O)(=O)N2C)s1 [meloxicam, 4-hydroxy-2-methyl-N-(5-methyl-2-thiazolyl)-2H-1,2-benzothiazine-3-carboxamide-1,1-dioxide] | 5 to 7 h | 5 to 6 h | at least 24 hours | 4.8 to 9.6 min | –
O=C(c1ccccc1)c1ccc2n1CCC2C(=O)O (centres unmarked) [ketorolac] | – | – | – | – | up to 30 minutes
